Reference: patent publication US6495585B2, “Method for treating hyperproliferative tissue in a mammal” (Health Research, Inc., priority 2001, dated 2002)

Assays:
[1] = system: TNF-α; details: cited from earlier work
[2] = system: cultured human and murine cells; details: cited from earlier work
[3] = system: RIF-1 tumors
Protocol: The drawings illustrate the responses of RIF-1 tumors to either PDT (FIG. 2a) or DMXAA (FIG. 2b). Dose response data are shown in the form of Kaplan-Meier ‘survival’ plots, where the percent of RIF-1 tumors with volumes less than […] are plotted against time from treatment. Tumor volumes at the time of treatment were 50-70 mg (approximately […] of the mouse body mass).
In pilot studies of PDT plus adjuvant DMXAA only low doses of each modality were chosen. […] 23 hours, 20 mg DMXAA/kg. 2 hours, 135 J/cm^263-nm laser light. Control tumors (no drug, no light) are shown as solid black squares; DMXAA are shown as open circles; PDT alone as gray circles.
The symbols in the graph are the same as for FIG. 3.

[4] = system: implanted murine tumors; details: compared with FAA; cited from earlier work
[5] = system: tumor cell lines; details: cited from earlier work
[6] = system: tumor blood flow; details: in vivo; cited from earlier work
[7] = system: natural killer cell activity; details: spleen and other tissues; cited from earlier work
[8] = system: Colon 38 tumors; details: compared with FAA; cited from earlier work

## Cc1ccc2c(=O)c3cccc(CC(=O)O)c3oc2c1C [DMXAA, 5,6-Dimethylxanthenone-4-acetic acid]
[1]
  cytokine induction: induce TNF-α along with IFN-γ
[2]
  in vitro activity: active in vitro
[3]; administered alone, Kaplan-Meier plots, FIG. 2a/2b
  tumor control (percent of RIF-1 tumors with volumes less than 400 mm vs time from treatment): control tumors in a dose-dependent manner
[3]; mouse, in vivo
  toxicity of most effective doses: most effective doses are at or near the treatment toxic limits
[4]
  dose potency against implanted murine tumors: considerably greater dose potencies than FAA

## O=C(O)Cc1cccc2c(=O)cc(-c3ccccc3)oc12 [FAA, Flavone-8-acetic acid]
[5]
  in vitro activity against tumor cell lines: shows in vitro activity against a number of tumor cell lines
[6]
  effect on tumor blood flow: causes reduction in tumor blood flow
[7]
  natural killer cell activity: induces natural killer cell activity

## O=C(O)Cc1cccc2c(=O)c3ccccc3oc12 [XAA, Xanthenone-4-acetic acid]
[8]
  efficiency in eliminating Colon 38 tumors: more efficient than FAA
